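These data come from cells grown in 96-well plates and exposed to compound for 48 hours at five concentrations. GI50 is the concentration that inhibits growth by half.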 The source made the active and inactive calls. Rule as the data show it: active = GI50 up to about 1.1 µM and inactive = higher.
Tests used:
Assay in all cases: NCI tumour cell line growth inhibition, 48 h
OVCAR-5 = test system: OVCAR-5
NCI-H460 = test system: NCI-H460
OVCAR-4 = test system: OVCAR-4
K562 = test system: K562
SN12C = test system: SN12C
NCI-H23 = test system: NCI-H23
HL-60 = test system: HL-60
SF-539 = test system: SF-539
HCC 2998 = test system: HCC 2998
HCT-15 = test system: HCT-15
OVCAR-8 = test system: OVCAR-8
LOX IMVI = test system: LOX IMVI
HCT-116 = test system: HCT-116
MCF7 = test system: MCF7
KM12 = test system: KM12
NCI-H226 = test system: NCI-H226
SF-268 = test system: SF-268
EKVX = test system: EKVX
SK-MEL-28 = test system: SK-MEL-28
IGROV-1 = test system: IGROV-1

| SMILES | GI50 (OVCAR-5) | GI50 (NCI-H460) | GI50 (OVCAR-4) | GI50 (K562) | GI50 (SN12C) | GI50 (NCI-H23) | GI50 (HL-60) | GI50 (SF-539) | GI50 (HCC 2998) | GI50 (HCT-15) [µM] | GI50 (OVCAR-8) | GI50 (LOX IMVI) | GI50 (HCT-116) | GI50 (MCF7) | GI50 (KM12) | GI50 (NCI-H226) | GI50 (SF-268) | GI50 (EKVX) | GI50 (SK-MEL-28) | GI50 (IGROV-1) |
| --- | --- | --- | --- | --- | --- | --- | --- | --- | --- | --- | --- | --- | --- | --- | --- | --- | --- | --- | --- | --- |
| CN(C)c1ccc(C2SCC(=O)N2c2nc3cc4sc(N5C(=O)CSC5c5ccc(N(C)C)cc5)nc4cc3s2)cc1 (stereo not given) | > 94 µM (inactive) | 1.53 µM (inactive) | 32.9 µM (inactive) | 40.9 µM (inactive) | > 20.5 µM (inactive) | 11.4 µM (inactive) | 29 µM (inactive) | 51.5 µM (inactive) | > 100 µM (inactive) | 8.87 | > 70.5 µM (inactive) | 43.9 µM (inactive) | 16 µM (inactive) | 12 µM (inactive) | 39.5 µM (inactive) | 7.62 µM (inactive) | 75.7 µM (inactive) | 54.1 µM (inactive) | > 72.8 µM (inactive) | 29.3 µM (inactive) |
| CCC1(O)CN(CCOC)[C@H]2C[C@@H]1C(=O)c1[nH]c3ccccc3c12 (stereo not given in full) | > 100 µM (inactive) | > 100 µM (inactive) | > 100 µM (inactive) | > 100 µM (inactive) | > 100 µM (inactive) | > 100 µM (inactive) | > 100 µM (inactive) | > 100 µM (inactive) | > 100 µM (inactive) | > 100 | > 100 µM (inactive) | > 100 µM (inactive) | > 100 µM (inactive) | > 100 µM (inactive) | > 100 µM (inactive) | > 100 µM (inactive) | > 100 µM (inactive) | > 100 µM (inactive) | > 100 µM (inactive) | > 100 µM (inactive) |
| CS/C=C\C(=O)O[C@H]1C[C@@H]2[C@@H](O)c3occ(C)c3C[C@]2(C)[C@@H](C)C1 | 34.8 µM (inactive) | 21.6 µM (inactive) | 22.2 µM (inactive) | 15.4 µM (inactive) | 16 µM (inactive) | 30.3 µM (inactive) | 14.9 µM (inactive) | 21.7 µM (inactive) | 29.2 µM (inactive) | 30.1 | 22.6 µM (inactive) | 17.6 µM (inactive) | 17.5 µM (inactive) | 31.9 µM (inactive) | 91 µM (inactive) | 13.4 µM (inactive) | 28 µM (inactive) | 37.5 µM (inactive) | 19.8 µM (inactive) | 20.4 µM (inactive) |
| CN1N=C(c2ccncc2)OC1c1ccc(Cl)cc1Cl (stereo not given) | > 100 µM (inactive) | > 100 µM (inactive) | 43.6 µM (inactive) | 50.5 µM (inactive) | 75.3 µM (inactive) | > 100 µM (inactive) | 41.2 µM (inactive) | 44.5 µM (inactive) | > 100 µM (inactive) | > 100 | > 100 µM (inactive) | > 100 µM (inactive) | 93.1 µM (inactive) | > 100 µM (inactive) | > 100 µM (inactive) | 29.2 µM (inactive) | > 100 µM (inactive) | 41.7 µM (inactive) | > 100 µM (inactive) | > 100 µM (inactive) |
| CSc1c(C#N)c(N)n(-c2ccc(C)cc2)c(=O)c1C#N | > 100 µM (inactive) | > 100 µM (inactive) | > 100 µM (inactive) | > 100 µM (inactive) | > 100 µM (inactive) | > 100 µM (inactive) | > 100 µM (inactive) | > 100 µM (inactive) | > 100 µM (inactive) | > 100 | > 100 µM (inactive) | 88.9 µM (inactive) | > 100 µM (inactive) | > 100 µM (inactive) | > 100 µM (inactive) | 70 µM (inactive) | > 100 µM (inactive) | > 100 µM (inactive) | > 100 µM (inactive) | > 100 µM (inactive) |
| O=C(O)c1cccc(C(=O)O)c1[S+]([O-])Cc1ccccc1 (stereo not given) | > 100 µM (inactive) | > 100 µM (inactive) | > 100 µM (inactive) | > 100 µM (inactive) | > 100 µM (inactive) | > 100 µM (inactive) | > 100 µM (inactive) | > 100 µM (inactive) | > 100 µM (inactive) | > 100 | > 100 µM (inactive) | > 100 µM (inactive) | > 100 µM (inactive) | > 100 µM (inactive) | > 100 µM (inactive) | > 100 µM (inactive) | > 100 µM (inactive) | > 100 µM (inactive) | > 100 µM (inactive) | > 100 µM (inactive) |
| C1CSCCSCCCSCCSCCCSCCSCCCSCCSC1 | > 100 µM (inactive) | > 100 µM (inactive) | > 100 µM (inactive) | > 100 µM (inactive) | > 100 µM (inactive) | > 100 µM (inactive) | > 100 µM (inactive) | > 100 µM (inactive) | > 100 µM (inactive) | > 100 | > 100 µM (inactive) | > 100 µM (inactive) | 62.8 µM (inactive) | > 100 µM (inactive) | > 100 µM (inactive) | > 100 µM (inactive) | > 100 µM (inactive) | > 100 µM (inactive) | > 100 µM (inactive) | > 100 µM (inactive) |
| CCC(C)C1NC(=O)C(NC(=O)C(CC(C)C)N(C)C(=O)[C@@H]2CC(O)CN2C(=O)[C@H](C)O)C(C)OC(=O)[C@H](Cc2ccc(OC)cc2)N(C)C(=O)[C@@H]2CCCN2C(=O)[C@H](CC(C)C)NC(=O)C(C)C(=O)[C@H](C(C)C)OC(=O)CC1O (stereo not given in full) | 0.265 µM (active) | 0.117 µM (active) | 0.17 µM (active) | 0.29 µM (active) | 0.147 µM (active) | 0.0169 µM (active) | 0.417 µM (active) | 0.0319 µM (active) | 0.148 µM (active) | 2.13 | 0.406 µM (active) | 0.138 µM (active) | 0.0458 µM (active) | 0.0627 µM (active) | 0.035 µM (active) | 0.0641 µM (active) | 0.153 µM (active) | 0.0201 µM (active) | 0.0462 µM (active) | 0.181 µM (active) |
| Cc1cc(C)c2c(=O)n(CN3CCN(c4ccccc4)CC3)sc2n1 | 27.7 µM (inactive) | 67.9 µM (inactive) | 54 µM (inactive) | 30 µM (inactive) | 27 µM (inactive) | 29.2 µM (inactive) | 9.71 µM (inactive) | 18.6 µM (inactive) | 71.3 µM (inactive) | 22.5 | 35.4 µM (inactive) | 20.7 µM (inactive) | 17.7 µM (inactive) | 29.7 µM (inactive) | > 100 µM (inactive) | > 100 µM (inactive) | > 100 µM (inactive) | 29.8 µM (inactive) | 36.6 µM (inactive) | > 100 µM (inactive) |
| COC(=O)CCc1cc(O)c2c(c1)C(C(=O)OC)C(c1ccc(O)c(O)c1)O2 (stereo not given) | > 65.5 µM (inactive) | 22.9 µM (inactive) | > 58.7 µM (inactive) | 2.61 µM (inactive) | 21.9 µM (inactive) | 26.6 µM (inactive) | 2.55 µM (inactive) | 9.64 µM (inactive) | 5.02 µM (inactive) | 4.36 | 21.8 µM (inactive) | 8.04 µM (inactive) | 7.19 µM (inactive) | 4.79 µM (inactive) | 3.88 µM (inactive) | 26.4 µM (inactive) | 16.3 µM (inactive) | 34.4 µM (inactive) | 8.93 µM (inactive) | 12.1 µM (inactive) |
| CC(C)=CCc1c(O)c(CC=C(C)C)c2oc(-c3ccc(O)cc3O)c(CC=C(C)C)c(=O)c2c1O | 14.8 µM (inactive) | 4.48 µM (inactive) | 5.51 µM (inactive) | 4.05 µM (inactive) | 8.59 µM (inactive) | 5.56 µM (inactive) | 7.06 µM (inactive) | 16.3 µM (inactive) | 4.06 µM (inactive) | 5.47 | 4.88 µM (inactive) | 5.26 µM (inactive) | 4.97 µM (inactive) | 3.98 µM (inactive) | 5.57 µM (inactive) | 23 µM (inactive) | 9.16 µM (inactive) | 12.4 µM (inactive) | 12.2 µM (inactive) | 10.6 µM (inactive) |
| CC(C)C1=CC2=C(C(=O)C1=O)C13CCCC(C)(C)C1CC2OC3=O (stereo not given) | 25.4 µM (inactive) | 26.2 µM (inactive) | 18.6 µM (inactive) | 3.64 µM (inactive) | 21.4 µM (inactive) | 26.8 µM (inactive) | 15.1 µM (inactive) | 20.7 µM (inactive) | 21.3 µM (inactive) | 12.8 | 19.2 µM (inactive) | 20.1 µM (inactive) | 18.3 µM (inactive) | 22.3 µM (inactive) | 31.8 µM (inactive) | 18.6 µM (inactive) | 22 µM (inactive) | 16.2 µM (inactive) | 14.1 µM (inactive) | 17.3 µM (inactive) |
| O=C1C(=O)c2c(oc(=O)c3ccccc23)-c2ccccc21 | > 25 µM (inactive) | > 25 µM (inactive) | 6.5 µM (inactive) | > 25 µM (inactive) | 14.5 µM (inactive) | 18 µM (inactive) | 8.11 µM (inactive) | > 25 µM (inactive) | 13.9 µM (inactive) | 17.6 | 16.4 µM (inactive) | 16.9 µM (inactive) | 11 µM (inactive) | 10.9 µM (inactive) | > 25 µM (inactive) | > 25 µM (inactive) | > 25 µM (inactive) | > 25 µM (inactive) | > 25 µM (inactive) | > 25 µM (inactive) |
| Cc1ccc2c(c1C)C(=O)/C(=C/c1ccccc1C(=O)O)C2 | > 100 µM (inactive) | > 100 µM (inactive) | > 100 µM (inactive) | > 100 µM (inactive) | > 100 µM (inactive) | > 100 µM (inactive) | > 100 µM (inactive) | > 100 µM (inactive) | > 100 µM (inactive) | > 100 | > 100 µM (inactive) | > 100 µM (inactive) | > 100 µM (inactive) | > 100 µM (inactive) | > 100 µM (inactive) | > 100 µM (inactive) | > 100 µM (inactive) | > 100 µM (inactive) | > 100 µM (inactive) | > 100 µM (inactive) |
